Laboratory results published in ChEMBL document CHEMBL1201862, “PubChem BioAssay data set” (2004).
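Five compound concentrations were applied to cells in 96-well plates for 48 hours; endpoints were derived by simple linear interpolation of the resulting dose-response curve. The concentration for 50% growth inhibition is given as GI50.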 Active and inactive are the calls of the source. No stated cut-off is given here; in the data, active = GI50 up to about 1.1 µM and inactive = higher.

Columns and labels:
Assay in all cases: NCI-60 cell line screen, 48 h
[1] = tested on: BT-549
[2] = tested on: Malme-3M
[3] = tested on: UO-31
[4] = tested on: LOX IMVI
[5] = tested on: SK-MEL-5
[6] = tested on: OVCAR-3
[7] = tested on: ACHN
[8] = tested on: HOP-62
[9] = tested on: HCC 2998
[10] = tested on: OVCAR-8
[11] = tested on: K562
[12] = tested on: UACC-257
[13] = tested on: CAKI-1
[14] = tested on: DU-145
[15] = tested on: NCI-H226
[16] = tested on: A549
[17] = tested on: NCI/ADR-RES
[18] = tested on: TK-10
[19] = tested on: SF-539
[20] = tested on: PC-3
[21] = tested on: SK-MEL-2
[22] = tested on: 786-0
[23] = tested on: T47D
[24] = tested on: MCF7
[25] = tested on: RPMI-8226
[26] = tested on: NCI-H460
[27] = tested on: OVCAR-5
[28] = tested on: A498
[29] = tested on: SNB-19
[30] = tested on: EKVX
[31] = tested on: MDA-MB-435
[32] = tested on: U-251
[33] = tested on: Hs-578T
[34] = tested on: SK-MEL-28
[35] = tested on: SF-268
[36] = tested on: CCRF-CEM
[37] = tested on: SK-OV-3
[38] = tested on: COLO 205
[39] = tested on: SF-295
[40] = tested on: IGROV-1
[41] = tested on: KM12
[42] = tested on: RXF 393
[43] = tested on: M14
[44] = tested on: HCT-15
[45] = tested on: HT-29
[46] = tested on: HOP-92
[47] = tested on: SNB-75
[48] = tested on: MDA-N
[49] = tested on: NCI-H23
[50] = tested on: MOLT-4
[51] = tested on: SN12C
[52] = tested on: SW-620
[53] = tested on: SR
[54] = tested on: MDA-MB-231
[55] = tested on: NCI-H522
[56] = tested on: HL-60
[57] = tested on: OVCAR-4
[58] = tested on: HCT-116
[59] = tested on: UACC-62

Compound: COC(=O)c1c(O)ccc2c1c1c(n2Cc2ccc(Cl)cc2Cl)C(=O)c2ccccc2C1=O
- GI50 [1]: 13.2 µM (inactive)
- GI50 [2]: 16 µM (inactive)
- GI50 [3]: 10.5 µM (inactive)
- GI50 [4]: 12.7 µM (inactive)
- GI50 [5]: 13.7 µM (inactive)
- GI50 [6]: 6.37 µM (inactive)
- GI50 [7]: 7.85 µM (inactive)
- GI50 [8]: 9.18 µM (inactive)
- GI50 [9]: 3.48 µM (inactive)
- GI50 [10]: 8.99 µM (inactive)
- GI50 [11]: 5.9 µM (inactive)
- GI50 [12]: 15.2 µM (inactive)
- GI50 [13]: 12.2 µM (inactive)
- GI50 [14]: 11.6 µM (inactive)
- GI50 [15]: 10.9 µM (inactive)
- GI50 [16]: 5.62 µM (inactive)
- GI50 [17]: 10.7 µM (inactive)
- GI50 [18]: 14.9 µM (inactive)
- GI50 [19]: 14.4 µM (inactive)
- GI50 [20]: 7.74 µM (inactive)
- GI50 [21]: 14.2 µM (inactive)
- GI50 [22]: 10.1 µM (inactive)
- GI50 [23]: 1.97 µM (inactive)
- GI50 [24]: 4.09 µM (inactive)
- GI50 [25]: 2.88 µM (inactive)
- GI50 [26]: 3.27 µM (inactive)
- GI50 [27]: 19.5 µM (inactive)
- GI50 [28]: 18.1 µM (inactive)
- GI50 [29]: 15.7 µM (inactive)
- GI50 [30]: 10.4 µM (inactive)
- GI50 [31]: 7.91 µM (inactive)
- GI50 [32]: 10.8 µM (inactive)
- GI50 [33]: 9.62 µM (inactive)
- GI50 [34]: 16.2 µM (inactive)
- GI50 [35]: 10.1 µM (inactive)
- GI50 [36]: 4.12 µM (inactive)
- GI50 [37]: 14.3 µM (inactive)
- GI50 [38]: 11.2 µM (inactive)
- GI50 [39]: 11.8 µM (inactive)
- GI50 [40]: 11.2 µM (inactive)
- GI50 [41]: 3.41 µM (inactive)
- GI50 [42]: 4.09 µM (inactive)
- GI50 [43]: 14.1 µM (inactive)
- GI50 [44]: 5.56 µM
- GI50 [45]: 17.6 µM (inactive)
- GI50 [46]: 12.2 µM (inactive)
- GI50 [47]: 17.9 µM (inactive)
- GI50 [48]: 12.1 µM (inactive)
- GI50 [49]: 10.5 µM (inactive)
- GI50 [50]: 2.27 µM (inactive)
- GI50 [51]: 2.21 µM (inactive)
- GI50 [52]: 13.4 µM (inactive)
- GI50 [53]: 3.44 µM (inactive)
- GI50 [54]: 10.9 µM (inactive)
- GI50 [55]: 7.46 µM (inactive)
- GI50 [56]: 13.8 µM (inactive)
- GI50 [57]: 1.95 µM (inactive)
- GI50 [58]: 3.91 µM (inactive)

Compound: O=C(O[C@@H](/C=C/c1ccccc1)P1(=O)N(Cc2ccccc2)[C@H]2CCCC[C@@H]2N1Cc1ccccc1)c1ccccc1
- GI50 [1]: 5.96 µM (inactive)
- GI50 [2]: 4.2 µM (inactive)
- GI50 [3]: 3.01 µM (inactive)
- GI50 [4]: 3.54 µM (inactive)
- GI50 [5]: 1.93 µM (inactive)
- GI50 [6]: 3.48 µM (inactive)
- GI50 [7]: 2.32 µM (inactive)
- GI50 [8]: 2.82 µM (inactive)
- GI50 [9]: 2.58 µM (inactive)
- GI50 [10]: 4.3 µM (inactive)
- GI50 [11]: 3.47 µM (inactive)
- GI50 [59]: 2.12 µM (inactive)
- GI50 [12]: 2.86 µM (inactive)
- GI50 [13]: 2.66 µM (inactive)
- GI50 [14]: 6.21 µM (inactive)
- GI50 [15]: 2.79 µM (inactive)
- GI50 [16]: 3.61 µM (inactive)
- GI50 [17]: 3.52 µM (inactive)
- GI50 [18]: 3.52 µM (inactive)
- GI50 [19]: 4.57 µM (inactive)
- GI50 [20]: 2.43 µM (inactive)
- GI50 [21]: 1.85 µM (inactive)
- GI50 [22]: 4.32 µM (inactive)
- GI50 [23]: 2.44 µM (inactive)
- GI50 [24]: 2.32 µM (inactive)
- GI50 [25]: 2.29 µM (inactive)
- GI50 [26]: 2.01 µM (inactive)
- GI50 [27]: 3.86 µM (inactive)
- GI50 [28]: 2.12 µM (inactive)
- GI50 [29]: 5.81 µM (inactive)
- GI50 [30]: 4.12 µM (inactive)
- GI50 [31]: 3.21 µM (inactive)
- GI50 [32]: 2.45 µM (inactive)
- GI50 [33]: 13.6 µM (inactive)
- GI50 [34]: 7.78 µM (inactive)
- GI50 [35]: 5.5 µM (inactive)
- GI50 [36]: 3.03 µM (inactive)
- GI50 [37]: 4.54 µM (inactive)
- GI50 [38]: 1.7 µM (inactive)
- GI50 [39]: 3.15 µM (inactive)
- GI50 [40]: 4.79 µM (inactive)
- GI50 [41]: 3.41 µM (inactive)
- GI50 [42]: 2 µM (inactive)
- GI50 [43]: 4.18 µM (inactive)
- GI50 [44]: 3.28 µM
- GI50 [45]: 3.08 µM (inactive)
- GI50 [46]: 2.86 µM (inactive)
- GI50 [47]: 5.6 µM (inactive)
- GI50 [48]: 4.22 µM (inactive)
- GI50 [49]: 2.96 µM (inactive)
- GI50 [51]: 2.53 µM (inactive)
- GI50 [52]: 3.69 µM (inactive)
- GI50 [53]: 2.86 µM (inactive)
- GI50 [54]: 2.29 µM (inactive)
- GI50 [55]: 3.55 µM (inactive)
- GI50 [56]: 2.39 µM (inactive)
- GI50 [57]: 3.59 µM (inactive)
- GI50 [58]: 3.02 µM (inactive)
